Where “and” joins values, the source holds several entries; their conditions need not be identical. Equal values may be shown once.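 Compound exposure: 48 hours, 5 concentrations, 96-well plates. The concentration for 50% growth inhibition is given as GI50.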 Calls of active or inactive are those of the source. Cut-off read from the data, not from the text of the source: active = GI50 up to about 1.1 µM and inactive = higher.
Experiments:
Test in all cases: NCI tumour cell line growth inhibition, 48 h
ACHN = test system: ACHN
SW-620 = test system: SW-620
KM12 = test system: KM12
IGROV-1 = test system: IGROV-1
LOX IMVI = test system: LOX IMVI
K562 = test system: K562
NCI/ADR-RES = test system: NCI/ADR-RES
A549 = test system: A549
SNB-19 = test system: SNB-19
SR = test system: SR
SK-MEL-5 = test system: SK-MEL-5
MOLT-4 = test system: MOLT-4
HT-29 = test system: HT-29
COLO 205 = test system: COLO 205
NCI-H226 = test system: NCI-H226
HCT-116 = test system: HCT-116
UACC-62 = test system: UACC-62
EKVX = test system: EKVX
SF-539 = test system: SF-539
NCI-H460 = test system: NCI-H460

`COC(=O)C1OC(O[C@H]2CC[C@]3(C)[C@H]4CC=C5[C@@H]6CC(C)(C)CC[C@]6(C(=O)OC6OCC(O)C(O)C6OC6OC(C)C(OC7OCC(O)C(OC8OCC(O)C(O)C8O)C7O)C(OC7OCC(O)C(O)C7O)C6O)CC[C@@]5(C)[C@]4(C)CC[C@H]3C2(C)C)C(O)C(OC2OCC(O)C(O)C2O)C1O` (some centres not stated) was tested, and the GI50 (ACHN) was 4.84 µM (inactive) and 4.03 µM (inactive), the GI50 (SW-620) was 9.2 µM (inactive) and 8.04 µM (inactive) and the GI50 (KM12) was 3.1 µM (inactive) and 3.08 µM (inactive). For the same compound, the GI50 (IGROV-1) was 7.41 µM (inactive) and 9.25 µM (inactive), the GI50 (LOX IMVI) was 7.85 µM (inactive) and 5.43 µM (inactive) and the GI50 (K562) was 4.94 µM (inactive) and 3.94 µM (inactive). For the same compound, the GI50 (NCI/ADR-RES) was 5.11 µM (inactive) and 4.45 µM (inactive), the GI50 (A549) was 3.17 µM (inactive) and 3.16 µM (inactive) and the GI50 (SNB-19) was 7.01 µM (inactive) and 6.22 µM (inactive). For the same compound, the GI50 (SR) was 1.75 µM (inactive) and 2.72 µM (inactive), the GI50 (SK-MEL-5) was 3.8 µM (inactive) and 2.52 µM (inactive) and the GI50 (MOLT-4) was 8.24 µM (inactive) and 4.91 µM (inactive). The GI50 (HT-29) was 3.1 µM (inactive) and 2.9 µM (inactive), the GI50 (COLO 205) was 1.6 µM (inactive) and 1.52 µM (inactive) and the GI50 (NCI-H226) was 2.9 µM (inactive) and 4.98 µM (inactive). For the same compound, the GI50 (HCT-116) was 4.04 µM (inactive) and 4.85 µM (inactive), the GI50 (UACC-62) was 3.08 µM (inactive) and 3.77 µM (inactive) and the GI50 (EKVX) was 3.74 µM (inactive) and 3.72 µM (inactive).

For `COC(=O)[C@@]12CSC[C@]1(C(=O)OC)N[C@@H](c1ccccc1O)C2`, the GI50 (ACHN) was > 100 µM (inactive), the GI50 (SW-620) was > 100 µM (inactive) and the GI50 (KM12) was > 100 µM (inactive). For the same compound, the GI50 (IGROV-1) was > 100 µM (inactive), the GI50 (K562) was > 100 µM (inactive) and the GI50 (NCI/ADR-RES) was > 100 µM (inactive). For the same compound, the GI50 (A549) was > 100 µM (inactive), the GI50 (SNB-19) was > 100 µM (inactive) and the GI50 (SR) was > 100 µM (inactive). For the same compound, the GI50 (SK-MEL-5) was > 100 µM (inactive), the GI50 (MOLT-4) was > 100 µM (inactive) and the GI50 (SF-539) was > 100 µM (inactive). The GI50 (HT-29) was > 100 µM (inactive), the GI50 (COLO 205) was > 100 µM (inactive) and the GI50 (NCI-H226) was > 100 µM (inactive). For the same compound, the GI50 (HCT-116) was > 100 µM (inactive), the GI50 (NCI-H460) was > 100 µM (inactive) and the GI50 (UACC-62) was > 100 µM (inactive). The GI50 (EKVX) was > 100 µM (inactive).

`O/N=N\c1nc(-c2ccccn2)nc2ccccc12` was tested, and the GI50 (ACHN) was 2.14 µM (inactive), the GI50 (SW-620) was 5.35 µM (inactive) and the GI50 (KM12) was 20.6 µM (inactive). For the same compound, the GI50 (IGROV-1) was 17 µM (inactive), the GI50 (K562) was 2.23 µM (inactive) and the GI50 (NCI/ADR-RES) was 7.78 µM (inactive). The GI50 (A549) was 45.3 µM (inactive), the GI50 (SNB-19) was 42.3 µM (inactive) and the GI50 (SR) was 2.38 µM (inactive). For the same compound, the GI50 (SK-MEL-5) was 2.77 µM (inactive), the GI50 (MOLT-4) was 0.373 µM (active) and the GI50 (SF-539) was 17.1 µM (inactive). The GI50 (HT-29) was 0.611 µM (active), the GI50 (COLO 205) was 6.15 µM (inactive) and the GI50 (NCI-H226) was 12.7 µM (inactive). For the same compound, the GI50 (HCT-116) was 3.33 µM (inactive), the GI50 (NCI-H460) was 2.49 µM (inactive) and the GI50 (UACC-62) was 7.18 µM (inactive). The GI50 (EKVX) was 18.2 µM (inactive).

With `Cc1nnc2sc(-c3ccc(N)cc3)nn12` the GI50 (ACHN) was > 100 µM (inactive), the GI50 (SW-620) was > 100 µM (inactive) and the GI50 (KM12) was > 100 µM (inactive). The GI50 (IGROV-1) was > 100 µM (inactive), the GI50 (K562) was > 100 µM (inactive) and the GI50 (NCI/ADR-RES) was > 100 µM (inactive). For the same compound, the GI50 (A549) was > 100 µM (inactive), the GI50 (SNB-19) was > 100 µM (inactive) and the GI50 (SR) was > 100 µM (inactive). The GI50 (SK-MEL-5) was > 100 µM (inactive), the GI50 (MOLT-4) was > 100 µM (inactive) and the GI50 (SF-539) was > 100 µM (inactive). For the same compound, the GI50 (HT-29) was > 100 µM (inactive), the GI50 (COLO 205) was > 100 µM (inactive) and the GI50 (NCI-H226) was > 100 µM (inactive). The GI50 (HCT-116) was > 100 µM (inactive), the GI50 (NCI-H460) was > 100 µM (inactive) and the GI50 (UACC-62) was > 100 µM (inactive). The GI50 (EKVX) was > 100 µM (inactive).

With `COc1c(O)cc(C(=O)O[C@@H]2Cc3c(O)cc(O)cc3O[C@@H]2c2cc(O)c(O)c(O)c2)cc1O` the GI50 (ACHN) was 30.6 µM (inactive), the GI50 (SW-620) was 28.2 µM (inactive) and the GI50 (KM12) was 20.1 µM (inactive). The GI50 (IGROV-1) was 46.2 µM (inactive), the GI50 (LOX IMVI) was 19.7 µM (inactive) and the GI50 (K562) was 22.8 µM (inactive). The GI50 (NCI/ADR-RES) was 32.9 µM (inactive), the GI50 (A549) was 23 µM (inactive) and the GI50 (SNB-19) was 21.4 µM (inactive). The GI50 (SR) was 18.7 µM (inactive), the GI50 (SK-MEL-5) was 26.7 µM (inactive) and the GI50 (MOLT-4) was 24.2 µM (inactive). The GI50 (HT-29) was 18.2 µM (inactive), the GI50 (HCT-116) was 17.9 µM (inactive) and the GI50 (NCI-H460) was 24.5 µM (inactive). For the same compound, the GI50 (UACC-62) was 25.8 µM (inactive) and the GI50 (EKVX) was 24.8 µM (inactive).

Source: ChEMBL document CHEMBL1201862, “PubChem BioAssay data set” (2004)
